According to patent US11872217B2, “Indanes as PD-L1 inhibitors” (CHEMOCENTRYX, INC., priority 2019, dated 2024):
pIC50: −log10 of the molar value.

Each molecule was assayed against human PD-L1 / Human PD-1 (Homo sapiens (Human), UniProt Q9NZQ7) (assay: Enzyme-Linked Immunosorbent Assay (ELISA), PD-1/PD-L1 binding). Settings: plates coated with human PD-L1; biotinylated human PD-1; absorbance at 450 nm.
Protocol: 96 Well plates were coated with 1 μg/mL of human PD-L1 (obtained from R&D) in PBS overnight at 4° C. The wells were then blocked with 2% BSA in PBS (W/V) with 0.05% TWEEN-20 for 1 hour at 37° C. The plates were washed 3 times with PBS/0.05% TWEEN-20 and the compounds were serial diluted (1:5) in dilution medium and added to the ELISA plates. Human PD-1 and biotin 0.3 μg/mL (ACRO Biosystems) were added and incubated for 1 hour at 37° C. then washed 3 times with PBS/0.05% TWEEN-20. A second block was performed with 2% BSA in PBS (W/V)/0.05% TWEEN-20 for 10 min at 37° C. and the plates were washed 3 times with PBS/0.05% TWEEN-20. Streptavidin-HRP was added for 1 hour at 37° C. then the plates were washed 3 times with PBS/0.05% TWEEN-20. TMB substrate was added and reacted for 20 min at 37° C. A stop solution (2 N aqueous H2SO4) was added. The absorbance was read at 450 nm using a micro-plate spectrophotometer. The results are shown in Table 1: IC50 values are provided as follows: from 100 up to 10,000 nM (+); less than 100 nM (++).

human PD-L1 / Human PD-1, sequence (Q9NZQ7 19-239): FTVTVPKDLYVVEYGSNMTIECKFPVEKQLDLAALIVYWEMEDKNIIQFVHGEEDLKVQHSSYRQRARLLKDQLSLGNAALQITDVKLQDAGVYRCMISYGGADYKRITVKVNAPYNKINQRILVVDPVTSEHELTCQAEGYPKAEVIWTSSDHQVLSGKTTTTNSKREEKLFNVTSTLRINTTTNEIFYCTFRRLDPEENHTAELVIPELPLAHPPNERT

Structure (SMILES)	pIC50
CCOc1cc(O[C@@H]2c3cccc(-c4cccc(COc5cc(COC)c(CN[C@@](C)(CO)C(=O)O)cc5Cl)c4C)c3C[C@@H]2F)c(Cl)cc1CN[C@@](C)(CO)C(=O)O (mixture of isomers) [Compound 1.020]	> 7.00
CCOc1cc(O[C@H]2CCc3c(-c4cccc(COc5cc(COC)c(CN6CCC(OC(=O)[C@@H](N)C(C)C)CC6)cc5Cl)c4C)cccc32)c(Cl)cc1CN1CCC(OC(=O)[C@@H](N)C(C)C)CC1 [Compound 1.001]	5.00 to 7.00
CCOc1cc(O[C@H]2CCc3c(-c4cccc5c4CC[C@@H]5Oc4cc(OCC)c(CN(C)[C@@H](CO)C(=O)O)cc4Cl)cccc32)c(Cl)cc1CN(C)[C@@H](CO)C(=O)O [Compound 1.002]	> 7.00
CCOc1cc(O[C@H]2CCc3c(-c4cccc5c4CC[C@@H]5Oc4cc(OCC)c(CN)cc4Cl)cccc32)c(Cl)cc1CN [Compound 1.003]	5.00 to 7.00
CCOc1cc(OCc2cccc(-c3cccc4c3CC[C@@H]4Oc3cc(OCC)c(CNCCS(=O)(=O)O)cc3Cl)c2C)c(Cl)cc1CNCCS(=O)(=O)O [Compound 1.004]	> 7.00
CCOc1cc(O[C@H]2CCc3c(-c4cccc(COc5cc(COC)c(CN6CCC(OC(=O)C(C)C)CC6)cc5Cl)c4C)cccc32)c(Cl)cc1CN1CCC(OC(=O)C(C)C)CC1 [Compound 1.005]	5.00 to 7.00
CCOc1cc(O[C@H]2CCc3c(-c4cccc5c4CC[C@@H]5Oc4cc(OCC)c(CN(C)[C@@](C)(CO)C(=O)O)cc4Cl)cccc32)c(Cl)cc1CN(C)C[C@@H]1CCC(=O)N1 [Compound 1.006]	> 7.00
Cc1cc(CN[C@@](C)(CO)C(=O)O)ccc1OCc1cccc(-c2cccc3c2CCC3Oc2ccc(CN[C@@](C)(CO)C(=O)O)cc2C)c1C (stereo partly drawn) [Compound 1.008]	> 7.00
CCOc1cc(O[C@H]2CCc3c(-c4cccc5c4CC[C@@H]5Oc4cc(OCC)c(CN[C@H]5CCC(=O)NC5)cc4Cl)cccc32)c(Cl)cc1CN[C@H]1CCC(=O)NC1 [Compound 1.009]	> 7.00
Cc1c(COc2ccc(CN[C@@](C)(CO)C(=O)O)cc2F)cccc1-c1cccc2c1CCC2Oc1ccc(CN[C@@](C)(CO)C(=O)O)cc1F (stereo partly drawn) [Compound 1.010]	5.00 to 7.00
COc1cc(CN[C@@](C)(CO)C(=O)O)ccc1OCc1cccc(-c2cccc3c2CCC3Oc2ccc(CN[C@@](C)(CO)C(=O)O)cc2OC)c1C (stereo partly drawn) [Compound 1.011]	5.00 to 7.00
CCOc1cc(O[C@H]2CCc3c(-c4cccc(COc5cc(COC)c(CN(C)CCCC(=O)O)cc5Cl)c4C)cccc32)c(Cl)cc1CN(C)CCCC(=O)O [Compound 1.012]	> 7.00
CCOc1cc(O[C@H]2CCc3c(-c4cccc5c4CC[C@@H]5Oc4cc(OCC)c(CN[C@@](C)(CO)C(=O)O)cc4Cl)cccc32)c(Cl)cc1CN[C@@H]1CCC[C@@H]1O [Compound 1.013]	> 7.00
CCOc1cc(O[C@H]2CCc3c(-c4cccc5c4CC[C@@H]5Oc4cc(OCC)c(CN[C@@H](CO)C(N)=O)cc4Cl)cccc32)c(Cl)cc1CN[C@@H](CO)C(N)=O [Compound 1.014]	> 7.00
CCOc1cc(NC2CCc3c(-c4cccc(COc5cc(OCC)c(CN(C)CCCC(=O)O)cc5Cl)c4C)cccc32)c(Cl)cc1CN(C)CCCC(=O)O (stereo not drawn) [Compound 1.015]	> 7.00
CCOc1cc(NC2CCc3c(-c4cccc(COc5cc(OCC)c(CN(C)CCCC(=O)OC)cc5Cl)c4C)cccc32)c(Cl)cc1CN(C)CCCC(=O)OC (stereo not drawn) [Compound 1.016]	5.00 to 7.00
N#Cc1cncc(COc2cc(O[C@H]3CCc4c(-c5cccc6c5CC[C@@H]6Oc5cc(OCc6cncc(C#N)c6)c(CNCC(=O)O)cc5Cl)cccc43)c(Cl)cc2CNCC(=O)O)c1 [Compound 1.017]	> 7.00
CCOc1cc(O[C@H]2CCc3c(-c4cccc5c4CC[C@@H]5Oc4cc(OCC)c(CN[C@H](CO)C(=O)O)cc4Cl)cccc32)c(Cl)cc1CN[C@H](CO)C(=O)O [Compound 1.018]	> 7.00
CCOc1cc(O[C@H]2CCc3c(-c4cccc5c4CC[C@@H]5Oc4cc(OCC)c(CN(C)[C@@](C)(CO)C(=O)O)cc4Cl)cccc32)c(Cl)cc1CN(C)[C@@](C)(CO)C(=O)O [Compound 1.019]	> 7.00
CCOc1cc(O[C@H]2CCc3c(-c4cccc5c4CC[C@@H]5Oc4cc(OCC)c(CN(C)CCCC(=O)OC)cc4Cl)cccc32)c(Cl)cc1CN(C)CCCC(=O)OC [Compound 1.021]	5.00 to 7.00
CCOc1cc(O[C@H]2CCc3c(-c4cccc5c4CC[C@@H]5Oc4cc(OCC)c(CN[C@@](C)(CO)C(=O)OC)cc4Cl)cccc32)c(Cl)cc1CN[C@@](C)(CO)C(=O)OC [Compound 1.022]	5.00 to 7.00

Structure (SMILES)	pIC50
CCOc1cc(OCc2cccc(-c3cccc4c3CCC4Oc3ccc(CN[C@@](C)(CO)C(=O)O)c(OCC)c3)c2C)ccc1CN[C@@](C)(CO)C(=O)O (stereo partly drawn) [Compound 1.023]	5.00 to 7.00
Cc1c(COc2ccc(CN[C@@](C)(CO)C(=O)O)cc2Cl)cccc1-c1cccc2c1CCC2Oc1ccc(CN[C@@](C)(CO)C(=O)O)cc1Cl (stereo partly drawn) [Compound 1.024]	> 7.00
CCOc1cc(O[C@H]2CCc3c(-c4cccc5c4CC[C@@H]5Oc4cc(OCC)c(CN(C)CCCC(=O)O)cc4Cl)cccc32)c(Cl)cc1CN(C)CCCC(=O)O [Compound 1.025]	> 7.00
CCOc1cc(O[C@H]2CCc3c(-c4cccc5c4CC[C@@H]5Oc4cc(OCc5cc(C#N)cc(C#N)c5)c(CN[C@@](C)(CO)C(=O)O)cc4Cl)cccc32)c(Cl)cc1CN[C@@](C)(CO)C(=O)O [Compound 1.026]	> 7.00
COC(=O)CCCN(C)Cc1cc(Cl)c(O[C@H]2CCc3c(-c4cccc5c4CC[C@@H]5Oc4cc(OCc5cncc(C#N)c5)c(CN(C)CCCC(=O)OC)cc4Cl)cccc32)cc1OCc1cncc(C#N)c1 [Compound 1.027]	> 7.00
CCOc1cc(O[C@H]2CCc3c(-c4cccc5c4CC[C@@H]5Oc4cc(OCC)c(CN5CCC6(C5)NC(=O)NC6=O)cc4Cl)cccc32)c(Cl)cc1CN[C@@](C)(CO)C(=O)O (stereo partly drawn) [Compound 1.028]	> 7.00
CCOc1cc(O[C@H]2CCc3c(-c4cccc5c4CC[C@@H]5Oc4cc(OCC)c(CN[C@H](C(=O)NS(C)(=O)=O)[C@@H](C)O)cc4Cl)cccc32)c(Cl)cc1CN[C@H](C(=O)NS(C)(=O)=O)[C@@H](C)O [Compound 1.030]	> 7.00
CCOc1cc(O[C@H]2CCc3c(-c4cccc5c4CC[C@H]5Oc4cc(OCC)c(CN[C@@](C)(CO)C(=O)O)cc4Cl)cccc32)c(Cl)cc1CN[C@@](C)(CO)C(=O)O [Compound 1.031]	> 7.00
CCOc1cc(O[C@H]2CCc3c(-c4cccc5c4CC[C@@H]5Oc4cc(OCC)c(CN[C@@](C)(CO)C(=O)O)cc4Cl)cccc32)c(Cl)cc1CNC[C@@H]1CCC(=O)N1 [Compound 1.032]	> 7.00
CN(Cc1cc(Cl)c(O[C@H]2CCc3c(-c4cccc5c4CC[C@@H]5Oc4cc(OCc5cncc(C#N)c5)c(CN(C)[C@@](C)(CO)C(=O)O)cc4Cl)cccc32)cc1OCc1cncc(C#N)c1)[C@@](C)(CO)C(=O)O [Compound 1.033]	> 7.00
CCOc1cc(O[C@H]2CCc3c(-c4cccc5c4CC[C@@H]5Oc4cc(OCC)c(CN[C@H](C(=O)OC)[C@@H](C)O)cc4Cl)cccc32)c(Cl)cc1CN[C@H](C(=O)OC)[C@@H](C)O [Compound 1.034]	5.00 to 7.00
CN(CCCC(=O)O)Cc1cc(Cl)c(O[C@H]2CCc3c(-c4cccc5c4CC[C@@H]5Oc4cc(OCc5cncc(C#N)c5)c(CN(C)CCCC(=O)O)cc4Cl)cccc32)cc1OCc1cncc(C#N)c1 [Compound 1.035]	> 7.00
CCOc1cc(O[C@H]2CCc3c(-c4cccc(COc5cc(COC)c(CN[C@@](C)(CO)C(=O)O)cc5Cl)c4C)cccc32)c(Cl)cc1CN[C@@](C)(CO)C(=O)O [Compound 1.036]	> 7.00
CCOc1cc(O[C@H]2CCc3c(-c4cccc(COc5ccc(CN(C)C)cc5)c4C)cccc32)c(Cl)cc1CN[C@@](C)(CO)C(=O)O [Compound 1.037]	> 7.00
N#Cc1cncc(COc2cc(O[C@H]3CCc4c(-c5cccc6c5CC[C@@H]6Oc5cc(OCc6cncc(C#N)c6)c(CN[C@@H](CO)C(=O)O)cc5Cl)cccc43)c(Cl)cc2CN[C@@H](CO)C(=O)O)c1 [Compound 1.038]	> 7.00
C[C@@H](O)[C@H](NCc1cc(Cl)c(O[C@H]2CCc3c(-c4cccc5c4CC[C@@H]5Oc4cc(OCc5cncc(C#N)c5)c(CN[C@H](C(=O)O)[C@@H](C)O)cc4Cl)cccc32)cc1OCc1cncc(C#N)c1)C(=O)O [Compound 1.039]	> 7.00
CCOc1cc(O[C@H]2CCc3c(-c4cccc5c4CC[C@@H]5Oc4cc(OCc5cncc(C#N)c5)c(CN[C@@](C)(CO)C(=O)O)cc4Cl)cccc32)c(Cl)cc1CN[C@@](C)(CO)C(=O)O [Compound 1.040]	> 7.00
CC(C)OC(=O)[C@](C)(CO)NCc1cc(Cl)c(O[C@H]2CCc3c(-c4cccc5c4CC[C@@H]5Oc4cc(OCc5cncc(C#N)c5)c(CN[C@@](C)(CO)C(=O)OC(C)C)cc4Cl)cccc32)cc1OCc1cncc(C#N)c1 [Compound 1.041]	5.00 to 7.00
CCOc1cc(O[C@H]2CCc3c(-c4cccc5c4CC[C@@H]5Oc4cc(OCC)c(CN[C@H](C(=O)O)[C@@H](C)O)cc4Cl)cccc32)c(Cl)cc1CN[C@H](C(=O)O)[C@@H](C)O [Compound 1.042]	> 7.00
CCOc1cc(O[C@H]2CCc3c(-c4cccc5c4CC[C@@H]5Oc4cc(OCC)c(CN(C)CCC(=O)OC)cc4Cl)cccc32)c(Cl)cc1CN(C)CCC(=O)OC [Compound 1.043]	5.00 to 7.00
CCOc1cc(O[C@H]2CCc3c(-c4cccc5c4CC[C@@H]5Oc4cc(OCC)c(CN[C@@](C)(CO)C(=O)O)cc4Cl)cccc32)c(Cl)cc1CN[C@@](C)(CO)C(=O)O [Compound 1.044]	> 7.00
